Values of other authors, collected in US20250177439A1, “LOW DOSE PRE-MIX FEED FOR TRACE MINERAL SUPPLEMENTATION” (Chemlock Operating LLC d/b/a Chemlock Nutrition, priority 2023, published 2025).

Settings: 105-140 ppm zinc compared to 132-177 pmm of zinc

## Zinc chloride hydroxide monohydrate [zinc hydroxy chloride]
  skin strength: enhanced the skin strength
